Patent US20220081412A1, “QUINOLINYL-PYRAZINE-CARBOXAMIDE COMPOUNDS AND USES THEREOF” (The Regents of the University of Michigan, priority 2018, published 2022)

Tested on: MIA PaCa-2 cells
Experiment: Bru-seq analysis for nascent RNA synthesis (log2FC of genes, GSEA gene sets)
Assay type: cell-based, human
Details: 4 h
[1] = GO_NUCLEAR_NUCLEOSOME, upregulated
[2] = GO_ORGANIC_HYDROXY_COMPOUND_BIOSYNTHETIC_PROCESS, upregulated
[3] = GO_PROTEIN_DNA_COMPLEX, upregulated
[4] = GO_REGULATION_OF_ENDOPLASMIC_RETICULUM_STRESS_INDUCED_INTRINSIC_APOPTOTIC_SIGNALING_PATHWAY, upregulated
[5] = GO_REGULATION_OF_STEROID_BIOSYNTHETIC_PROCESS, upregulated
[6] = GO_REGULATION_OF_STEROID_METABOLIC_PROCESS, upregulated
[7] = GO_RIBOSOMAL_SUBUNIT, upregulated
[8] = GO_STEROID_BIOSYNTHETIC_PROCESS, upregulated
[9] = GO_STEROID_METABOLIC_PROCESS, upregulated
[10] = GO_STEROL_BIOSYNTHETIC_PROCESS, upregulated
[11] = GO_STEROL_METABOLIC_PROCESS, upregulated
[12] = GO_STRUCTURAL_CONSTITUENT_OF_RIBOSOME, upregulated
[13] = HAMAI_APOPTOSIS_VIA_TRAIL_UP, C2, downregulated
[14] = HUTTMANN_B_CLL_POOR_SURVIVAL_DN, C2, downregulated
[15] = KEGG_ACUTE_MYELOID_LEUKEMIA, upregulated
[16] = KEGG_ADIPOCYTOKINE_SIGNALING_PATHWAY, upregulated
[17] = KEGG_BIOSYNTHESIS_OF_UNSATURATED_FATTY_ACIDS, upregulated
[18] = KEGG_CARDIAC_MUSCLE_CONTRACTION, upregulated
[19] = KEGG_ENDOMETRIAL_CANCER, upregulated
[20] = KEGG_FC_EPSILON_RI_SIGNALING_PATHWAY, upregulated
[21] = KEGG_GLYCOLYSIS_GLUCONEOGENESIS, upregulated
[22] = KEGG_INSULIN_SIGNALING_PATHWAY, upregulated
[23] = KEGG_LONG_TERM_DEPRESSION, upregulated
[24] = KEGG_MTOR_SIGNALING_PATHWAY, upregulated
[25] = KEGG_NON_SMALL_CELL_LUNG_CANCER, upregulated
[26] = KEGG_OXIDATIVE_PHOSPHORYLATION, upregulated
[27] = KEGG_PARKINSONS_DISEASE, upregulated
[28] = KEGG_PORPHYRIN_AND_CHLOROPHYLL_METABOLISM, upregulated
[29] = KEGG_PPAR_SIGNALING_PATHWAY, upregulated
[30] = KEGG_PROGESTERONE_MEDIATED_OOCYTE_MATURATION, upregulated
[31] = KEGG_PROSTATE_CANCER, upregulated
[32] = KEGG_RENAL_CELL_CARCINOMA, upregulated
[33] = KEGG_SNARE_INTERACTIONS_IN_VESICULAR_TRANSPORT, upregulated
[34] = KEGG_SYSTEMIC_LUPUS_ERYTHEMATOSUS, upregulated
[35] = KEGG_VEGF_SIGNALING_PATHWAY, upregulated
[36] = KRCTCNNNNMANAGC_UNKNOWN, TFBT, upregulated
[37] = MILI_PSEUDOPODIA_HAPTOTAXIS_UP, C2, downregulated
[38] = NIKOLSKY_BREAST_CANCER_8Q12_Q22_AMPLICON, C2, downregulated

SMILES: Cc1cc(NC(=O)c2cnc(N3CCNCC3)cn2)c2ncccc2c1 [J28, N-(6-methylquinolin-8-yl)-5-(piperazin-1-yl)pyrazine-2-carboxamide]
- ES [1]: 0.745
- NES [1]: 2.088
- ES [2]: 0.503
- NES [2]: 1.959
- ES [3]: 0.554
- NES [3]: 2.251
- ES [4]: 0.678
- NES [4]: 2.024
- ES [5]: 0.710
- NES [5]: 2.097
- ES [6]: 0.615
- NES [6]: 2.031
- ES [7]: 0.469
- NES [7]: 1.976
- ES [8]: 0.605
- NES [8]: 2.176
- ES [9]: 0.523
- NES [9]: 2.100
- ES [10]: 0.757
- NES [10]: 2.428
- ES [11]: 0.651
- NES [11]: 2.434
- ES [12]: 0.452
- NES [12]: 1.990
- log2FC (GPR135, downregulated protein-coding gene): −1.08
- log2FC (GRIN2C, downregulated protein-coding gene): −0.95
- ES [13]: −0.508
- NES [13]: −2.848
- ES (HEB_Q6, TFBT, upregulated): 0.415
- NES (HEB_Q6, TFBT, upregulated): 1.688
- log2FC (HRH4, downregulated protein-coding gene): −0.86
- ES [14]: −0.605
- NES [14]: −2.158
- log2FC (IFT80, downregulated protein-coding gene): −1.12
- ES [15]: 0.524
- NES [15]: 1.872
- ES [16]: 0.429
- NES [16]: 1.493
- ES [17]: 0.555
- NES [17]: 1.531
- ES [18]: 0.424
- NES [18]: 1.386
- ES [19]: 0.437
- NES [19]: 1.492
- ES [20]: 0.442
- NES [20]: 1.464
- ES [21]: 0.478
- NES [21]: 1.563
- ES [22]: 0.349
- NES [22]: 1.403
- ES [23]: 0.461
- NES [23]: 1.491
- ES (KEGG_LYSOSOME, upregulated): 0.494
- NES (KEGG_LYSOSOME, upregulated): 1.958
- ES [24]: 0.447
- NES [24]: 1.469
- ES [25]: 0.477
- NES [25]: 1.610
- ES [26]: 0.387
- NES [26]: 1.544
- ES [27]: 0.358
- NES [27]: 1.404
- ES (KEGG_PEROXISOME, upregulated): 0.443
- NES (KEGG_PEROXISOME, upregulated): 1.643
- ES [28]: 0.496
- NES [28]: 1.448
- ES [29]: 0.485
- NES [29]: 1.573
- ES [30]: 0.434
- NES [30]: 1.602
- ES [31]: 0.402
- NES [31]: 1.527
- ES [32]: 0.393
- NES [32]: 1.392
- ES (KEGG_RIBOSOME, upregulated): 0.534
- NES (KEGG_RIBOSOME, upregulated): 2.148
- ES [33]: 0.503
- NES [33]: 1.647
- ES [34]: 0.661
- NES [34]: 2.271
- ES [35]: 0.501
- NES [35]: 1.705
- log2FC (KLF10, downregulated protein-coding gene): −0.88
- ES [36]: 0.784
- NES [36]: 2.441
- log2FC (LINC01337, downregulated noncoding gene): −1.06
- log2FC (LINC01764, downregulated noncoding gene): −1.03
- log2FC (LINC01930, downregulated noncoding gene): −1.08
- log2FC (MALAT1, downregulated noncoding gene): −1.19
- ES (MAZR_01, TFBT, upregulated): 0.380
- NES (MAZR_01, TFBT, upregulated): 1.598
- ES [37]: −0.420
- NES [37]: −2.372
- log2FC (MTND2P28, downregulated noncoding gene): −0.97
- ES (NFE2_01, TFBT, upregulated): 0.387
- NES (NFE2_01, TFBT, upregulated): 1.630
- ES (NFY_Q6_01, TFBT, upregulated): 0.370
- NES (NFY_Q6_01, TFBT, upregulated): 1.617
- ES [38]: −0.499
- NES [38]: −2.099
- ES (NRF2_01, TFBT, upregulated): 0.356
- NES (NRF2_01, TFBT, upregulated): 1.597
